Source: PubChem BioAssay (NCI)
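These data come from cells grown in 96-well plates and exposed to compound for 48 hours at five concentrations. TGI: total growth inhibition.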

Assays:
Test in all cases: growth of human tumour cells (NCI), 48 h
CAKI-1 renal = test system: CAKI-1 renal
COLO 205 colon = test system: COLO 205 colon
MDA-MB-435 = test system: MDA-MB-435
NCI-H23 lung = test system: NCI-H23 lung
OVCAR-3 ovarian = test system: OVCAR-3 ovarian
OVCAR-5 ovarian = test system: OVCAR-5 ovarian
PC-3 prostate = test system: PC-3 prostate
SK-OV-3 ovarian = test system: SK-OV-3 ovarian
U251 CNS = test system: U251 CNS
UO-31 renal = test system: UO-31 renal

Structure (SMILES) | TGI (CAKI-1 renal) | TGI (COLO 205 colon) | TGI (MDA-MB-435) | TGI (NCI-H23 lung) | TGI (OVCAR-3 ovarian) | TGI (OVCAR-5 ovarian) | TGI (PC-3 prostate) | TGI (SK-OV-3 ovarian) | TGI (U251 CNS) | TGI (UO-31 renal)
N#Cc1nc(C2CCC(=O)O2)oc1N (centres undefined) | > 100 µM | > 100 µM | > 100 µM | > 100 µM | > 100 µM | > 100 µM | > 100 µM | > 100 µM | > 100 µM | > 100 µM
CC(O)CNC1=CC(=O)C(=O)c2ccccc21 (centres undefined) | 33.5 µM | 22 µM | 23.9 µM | 39.1 µM | 13.4 µM | 35.6 µM | > 100 µM | > 100 µM | 30.6 µM | 34 µM
C=C(C)[C@H]1CC(=O)/C(C)=C\CC/C(C)=C/CC[C@@]2(C)O[C@@H]2C1 | 9.41 µM | 32 µM | 35 µM | 51.8 µM | 43.9 µM | 94.8 µM | 64.5 µM | 59 µM | 49.8 µM | 48.4 µM
COc1ccc(C2SC(N)=Nc3c2c(C)nn3C(=O)c2ccc(Cl)cc2)cc1OC (centres undefined) | > 10 µM | > 10 µM | > 10 µM | > 10 µM | > 10 µM | > 10 µM | > 10 µM | > 10 µM | > 10 µM | –
C#CCOCC12C=CC(O1)C1COC(=O)C12 (centres undefined) | > 100 µM | > 100 µM | > 100 µM | > 100 µM | > 100 µM | > 100 µM | > 100 µM | > 100 µM | > 100 µM | > 100 µM
Cn1c2c(c3ccccc31)CCN1C(=O)C34CCCC3CC21S4 (centres undefined) | > 100 µM | > 100 µM | > 100 µM | > 100 µM | > 100 µM | > 100 µM | > 100 µM | > 100 µM | > 100 µM | > 100 µM
Cc1nc(SCC(N)=O)c2sc(=S)n(-c3ccccc3)c2n1 | > 10 µM | > 10 µM | > 10 µM | > 10 µM | > 10 µM | > 10 µM | > 10 µM | > 10 µM | > 10 µM | –
O=P(OCc1ccccc1)(OCc1ccccc1)C(O)/C=C/c1ccccc1 (centres undefined) | 98.7 µM | 44.9 µM | 35.1 µM | 44.6 µM | 43.6 µM | > 100 µM | > 100 µM | > 100 µM | 27.4 µM | 80.3 µM
CN(C)CCCNc1cc(O)c2c(c1O)C(=O)c1ccccc1C2=O | 25.7 µM | 24.5 µM | 29.2 µM | 27.9 µM | 23.5 µM | 33.7 µM | 27.5 µM | 24.8 µM | 27.2 µM | 11.9 µM
Cc1nnc2n1-c1ccccc1N(Cc1ccccc1)CC2 | > 100 µM | > 100 µM | > 100 µM | > 100 µM | > 100 µM | > 100 µM | > 100 µM | > 100 µM | > 100 µM | > 100 µM
O=C1NC(=S)NC(=O)C1C(c1ccc(Cl)cc1)C1C(=O)NC(=S)NC1=O | > 100 µM | > 100 µM | > 100 µM | > 100 µM | > 100 µM | > 100 µM | > 100 µM | – | > 100 µM | > 100 µM
CCN(CC)c1ccc(NC(=S)NN(C)C)cc1 | > 10 µM | > 10 µM | > 10 µM | > 10 µM | > 10 µM | – | > 10 µM | > 10 µM | > 10 µM | > 10 µM
Cc1ccc(C(=O)Cc2nc3c([nH]c2=O)c(C)nn3-c2ccccc2)c(C)c1 | > 10 µM | > 10 µM | > 10 µM | > 10 µM | 8.94 µM | – | > 10 µM | > 10 µM | > 10 µM | –
C[n+]1c(-c2ccc(NC(=O)c3ccc(C(=O)Nc4ccc(-c5cn6ccccc6[n+]5C)cc4)cc3)cc2)cn2ccccc21 | > 100 µM | > 100 µM | > 100 µM | > 100 µM | > 100 µM | > 100 µM | > 100 µM | > 100 µM | > 100 µM | > 100 µM
COc1cc2c3c(cc(Cl)nc3c1OC)C(=O)C(=O)N2 | 28.6 µM | 51 µM | 3.37 µM | 34.1 µM | 32.5 µM | 32.2 µM | 27.6 µM | 33.3 µM | 30.3 µM | 26.7 µM
O=[N+]([O-])/C(Cl)=C(/C(Cl)=C(Cl)Cl)N1CCCCC1 | 24.9 µM | 22.7 µM | 20.8 µM | 22.2 µM | 22.8 µM | 29.2 µM | 43.8 µM | > 100 µM | 26.8 µM | 25.7 µM
Cc1cn(CCCCCOC(=O)NC(CCCNC(N)=O)C(=O)O)c(=O)[nH]c1=O (centres undefined) | > 100 µM | > 100 µM | > 100 µM | > 100 µM | > 100 µM | > 100 µM | > 100 µM | > 100 µM | > 100 µM | > 100 µM

Structure (SMILES) | TGI (CAKI-1 renal) | TGI (COLO 205 colon) | TGI (MDA-MB-435) | TGI (NCI-H23 lung) | TGI (OVCAR-3 ovarian) | TGI (OVCAR-5 ovarian) | TGI (PC-3 prostate) | TGI (SK-OV-3 ovarian) | TGI (U251 CNS) | TGI (UO-31 renal)
Cc1ccc(S(=O)(=O)c2c(O)c3ccc(O)c(C)c3oc2=O)cc1 | > 100 µM | > 100 µM | > 100 µM | > 100 µM | > 100 µM | > 100 µM | > 100 µM | > 100 µM | > 100 µM | > 100 µM
S=c1[nH]nc(Cn2c3ccc(Br)cc3c3nc4ccccc4nc32)n1C1CCCCC1 | > 100 µM | > 59.8 µM | > 100 µM | 42.1 µM | > 59.7 µM | > 100 µM | > 66.9 µM | 83.7 µM | > 67.6 µM | > 76.2 µM
COC(=O)C1=C(C)NC(C)=C(C(=O)OC)C1c1cccc(N=O)c1 | 22.4 µM | 32.6 µM | 29.7 µM | 36.2 µM | 29 µM | 32.3 µM | 31.7 µM | 44.3 µM | 30.7 µM | 21 µM
O=C(Sc1c(-c2ccccc2)c(=O)n(-c2ccccc2)c(=S)n1-c1ccccc1)c1ccco1 | > 100 µM | > 100 µM | > 100 µM | > 100 µM | > 100 µM | > 100 µM | > 100 µM | > 100 µM | > 100 µM | > 100 µM
CCOc1ccc(NCC2CC/C(=C\C=C\c3ccccc3)C2=O)cc1 (centres undefined) | > 40.8 µM | 31.7 µM | 30.4 µM | 39.3 µM | 34.4 µM | 53.4 µM | 49.8 µM | > 100 µM | 35.5 µM | 66.2 µM
Cc1cc(OCc2nnc3sc(NC(=O)c4ccccc4)nn23)ccc1Cl | 36 µM | > 100 µM | 50.2 µM | 82.2 µM | > 100 µM | > 100 µM | > 100 µM | > 100 µM | > 100 µM | 35.2 µM
Cc1cccc(NS(=O)(=O)c2ccc(N=Nc3c(O)c(C(=O)O)cc4ccccc34)cc2)n1 | > 100 µM | > 100 µM | > 100 µM | > 100 µM | > 100 µM | > 100 µM | > 100 µM | > 100 µM | > 100 µM | > 100 µM
O=C(/C=C\Nc1ccccc1O)C(F)(F)F | > 100 µM | 71.1 µM | > 100 µM | > 100 µM | 87 µM | > 100 µM | > 100 µM | > 100 µM | > 100 µM | > 100 µM
COc1ccc(OC/C(N=Cc2ccncc2)=N/NC(=O)c2ccncc2)cc1 | > 100 µM | > 100 µM | 62.4 µM | > 100 µM | > 100 µM | > 100 µM | > 100 µM | > 100 µM | > 100 µM | –
Clc1cc(C(c2cc(Cl)sc2Cl)c2cc(Cl)sc2Cl)c(Cl)s1 | > 100 µM | > 100 µM | > 100 µM | > 100 µM | > 100 µM | > 100 µM | > 100 µM | > 100 µM | > 100 µM | > 100 µM
CC1(C)OC[C@@H](C[C@H](O)COCc2ccccc2)O1 | > 100 µM | > 100 µM | > 100 µM | > 100 µM | > 100 µM | > 100 µM | > 100 µM | > 100 µM | > 100 µM | > 100 µM
N#Cc1nc(CCCN2C(=O)c3ccccc3C2=O)oc1N | > 100 µM | > 100 µM | > 100 µM | > 100 µM | > 100 µM | > 100 µM | > 100 µM | > 100 µM | > 100 µM | > 100 µM
Nc1nncc2[nH]cnc12 | > 100 µM | > 60.9 µM | > 100 µM | – | > 100 µM | > 100 µM | > 100 µM | > 100 µM | > 100 µM | > 100 µM
Clc1ccc(OCc2nnc(COc3ccc(OCc4nnc(COc5ccc(Cl)cc5Cl)o4)c(Cl)c3)o2)c(Cl)c1 | 54.9 µM | 74.9 µM | > 100 µM | > 100 µM | 61.7 µM | > 100 µM | > 100 µM | – | 54.7 µM | 36.7 µM
CCOC(=O)Cn1nnc2cc(Nc3c(C)[n+]([O-])c4cc(F)c(OCC)cc4[n+]3[O-])ccc21 | > 100 µM | – | > 100 µM | > 100 µM | > 100 µM | > 100 µM | > 100 µM | > 100 µM | > 100 µM | > 100 µM
CC(C)(C)c1cc(/C=C2/NC(=O)NC2=O)cc(C(C)(C)C)c1O | 31.5 µM | 28.5 µM | 33.4 µM | 30.6 µM | 27.9 µM | 30.8 µM | 20.3 µM | 32 µM | 25.8 µM | –
